Assay results as given in patent US20230338370A1, “Treatment of Cancer with TOR Kinase Inhibitors” (Signal Pharmaceuticals, LLC, priority 2012, published 2023).

Legend:
Assay in all cases: Growth inhibition assay for Breast Cancer (BC) Cell lines
Type in all cases: cell-based
ZR-75-1 = conditions: Homo sapiens; ZR-75-1, ER+/PR+; 96 hours, Cell Titer-Glo
Method: (§1) Growth inhibition assay for Breast Cancer (BC) Cell lines. Compounds 1 (a TOR kinase inhibitor set forth herein having molecular formula C16H16N8O) and 2 (a TOR kinase inhibitor set forth herein having molecular formula C17H18N8O2) were dissolved in dimethyl sulfoxide (DMSO) to prepare a 10 mM stock solution. A serial titration was performed to produce a working concentration range of 1.5 µM to 10 mM. Aliquots to produce final concentrations of 1.5 nM to 10 µM were spotted via an acoustic dispenser (EDC ATS-100) into an empty 384-well plate. Compounds 1 and 2 were spotted in a 10-point serial dilution fashion (3-fold dilution) in duplicate within the plate. The DMSO concentration was kept constant for a final assay concentration of 0.1% DMSO. Plates were replicated for use with different cell lines and testing periods. After compound plate replication, all plates were sealed (Agilent ThermoLoc) and stored at -20° C. for up to 1 month. […] When ready for testing, plates were removed from the freezer, thawed, and unsealed just prior to the addition of the test cells. Prior to testing, cells were grown and expanded in culture flasks to provide sufficient amounts of starting material. Cells were then diluted to the appropriate densities and added directly to the compound-spotted 384-well plates. Cells were allowed to grow for 96 hours at 37° C./5% CO2. At the time when compound was added (t0), initial cell number was assessed via a viability assay (Cell Titer-Glo) by quantifying the level of luminescence generated by ATP present in viable cells. After 96 hours, cell viability of compound-treated cells was assessed via Cell Titer-Glo and luminescence measurement. Cell lines were assayed for growth inhibition by Compounds 1 and 2 in at least 3 independent tests. A control cell line (the lung tumor cell line, A549) was included in each of the assays. The compound response against this control cell line was monitored closely to enable comparison of the data generated through the assay period. All data were normalized and presented as a percentage of the DMSO-treated cells. Results were then expressed as a GI50 value. The GI50 value corrects for the cell count at time zero.

CAMA-1 = conditions: Homo sapiens; CAMA-1, ER+/PR+; 96 hours, Cell Titer-Glo
Method: as §1

T47D = conditions: Homo sapiens, ER+/PR+, 96 hours, Cell Titer-Glo
Method: as §1

EFM-19 = conditions: Homo sapiens; EFM-19, ER+/PR+; 96 hours, Cell Titer-Glo
Method: as §1

HCC1428 = conditions: Homo sapiens; HCC1428, ER+/PR+; 96 hours, Cell Titer-Glo
Method: as §1

HCC1500 = conditions: HCC1500, ER+/PR+; 96 hours, Cell Titer-Glo
Method: as §1

HCC1954 = conditions: Homo sapiens; HCC1954, Her2+; 96 hours, Cell Titer-Glo
Method: as §1

HCC1569 = conditions: Homo sapiens; HCC1569, Her2+; 96 hours, Cell Titer-Glo
Method: as §1

MDA-MB-453 = conditions: Homo sapiens; MDA-MB-453, Her2+; 96 hours, Cell Titer-Glo
Method: as §1

BT-483 = conditions: Homo sapiens; BT-483, ER+/PR+; 96 hours, Cell Titer-Glo
Method: as §1

MCF7 = conditions: Homo sapiens; MCF7, ER+/PR+; 96 hours, Cell Titer-Glo
Method: as §1

MDA-MB-175-VII = conditions: Homo sapiens, ER+/PR+, 96 hours, Cell Titer-Glo
Method: as §1

MDA-MB-134-VI = conditions: Homo sapiens, ER+/PR+, 96 hours, Cell Titer-Glo
Method: as §1

HCC202 = conditions: HCC202, Her2+; 96 hours, Cell Titer-Glo
Method: as §1

UACC-812 = conditions: Homo sapiens; UACC-812, Her2+; 96 hours, Cell Titer-Glo
Method: as §1

SK-BR-3 = conditions: Homo sapiens; SK-BR-3, Her2+; 96 hours, Cell Titer-Glo
Method: as §1

MDA-MB-361 = conditions: Homo sapiens; MDA-MB-361, Her2+; 96 hours, Cell Titer-Glo
Method: as §1

BT-474 = conditions: Homo sapiens; BT-474, Her2+; 96 hours, Cell Titer-Glo
Method: as §1

MDA-MB-415 = conditions: Homo sapiens; MDA-MB-415, ER+/PR+; 96 hours, Cell Titer-Glo
Method: as §1

ZR-75-30 = conditions: Homo sapiens; ZR-75-30, Her2+; 96 hours, Cell Titer-Glo
Method: as §1

AU565 = conditions: Homo sapiens; AU565, Her2+; 96 hours, Cell Titer-Glo
Method: as §1

KPL-1 = conditions: KPL-1, ER+/PR+; 96 hours, Cell Titer-Glo
Method: as §1

EFM-192A = conditions: Her2+, 96 hours, Cell Titer-Glo
Method: as §1

GI50 (ZR-75-1): 10.3 nM
GI50 (CAMA-1): 44.6 nM
GI50 (T47D): 21.4 nM
GI50 (EFM-19): 21.1 nM
GI50 (HCC1428): 96.5 nM
GI50 (HCC1500): 24.6 nM
GI50 (HCC1954): 73.3 nM
GI50 (HCC1569): 120 nM
GI50 (MDA-MB-453): 44.5 nM
GI50 (BT-483): 17.3 nM
GI50 (MCF7): 83.4 nM
GI50 (MDA-MB-175-VII): 17 nM
GI50 (MDA-MB-134-VI): 69.5 nM
GI50 (HCC202): 8.9 nM
GI50 (UACC-812): 32.1 nM
GI50 (SK-BR-3): 66.8 nM
GI50 (MDA-MB-361): 28.5 nM
GI50 (BT-474): 78.2 nM
GI50 (MDA-MB-415): 53.4 nM
GI50 (ZR-75-30): 18.8 nM
GI50 (AU565): 58.2 nM
GI50 (KPL-1): 50.7 nM
GI50 (EFM-192A): 74.1 nM
Compound: COCCN1C(=O)CNc2ncc(-c3ccc(-c4nnc[nH]4)nc3C)nc21 [Compound 2, 1-(2-methoxyethyl)-7-(2-methyl-6-(4H-1,2,4-triazol-3-yl)pyridin-3-yl)-3,4-dihydropyrazino[2,3-b]pyrazin-2(1H)-one]
